Read-outs that look alike come from different tables or passages of the source.

The text below walks through data of patent US4755527A, “Aryl substituted aminomethyl benzene derivatives” (priority 1985, dated 1988).

The test system of data set [1] is ventricular arrhythmias induced by two-stage ligation of the left anterior descending coronary artery (Harris dog). In words: Antiarrhythmic activity by coronary ligation in the Harris dog model (i.v. infusion). It counts as in vivo, dog (adult mongrel). To be noted: for minimal effective dose: Canis lupus familiaris, read-out: Antiarrhythmic ED in Harris Dog. From the text:
The following examples describe the pharmacological evaluation of the compounds made in accordance with the present invention. In particular, these examples describe the evaluation of antiarrhythmic activity by coronary ligation in the well known Harris dog model. Ventricular arrhythmias were induced in adult mongrel dogs (10-15 kg) of either sex by two-stage ligation of the left anterior descending coronary artery. […] The test compound in saline was infused intravenously at a cumulative rate of […] to 1.2 mg/kg/min (base) unitl normal sinus rhythm or toxicity occurred. Normal sinus rhythm was defined as 90-100% normal complexes over a 5 min period.

For data set [2], the system named is ventricular arrhythmias induced by ouabain (Ouabain dog). In words: Antiarrhythmic activity in the Ouabain dog model (i.v. infusion). To be noted: Canis lupus familiaris, read-out: Antiarrhythmic ED in Ouabain Dog. It counts as in vivo. How it is done:
The following examples describe the pharmacological evaluation of the compounds in accordance with the present invention. In particular, these examples describe the evaluation of antiarrhythmic activity in the Oubain dog model. […] The test compound was infused intravenously in saline at a rate of about 0.3 to about 5 mg/kg/min until normal sinus rhythm or toxicity occurred. Normal sinus rhythm was defined as 90-100% normal complexes over a 5 minute period.

Another data set deals with Guinea Pig Ileum. Kind of data set: In vitro evaluation of anticholinergic activity in the isolated guinea pig ileum. To be noted: for inhibition at 4 µg/mL: Cavia porcellus, read-out: Anticholinergic Inhibition of Guinea Pig Ileum (% inhibition at 4 mg/L). More on the design: species or system guinea pig (male Hartley). How it is done:
The following examples describe the in vitro evaluation of anticholinergic activity in the isolated guinea pig ileum. Fasted, male Hartley guinea pigs (300-400 g) were killed by a blow to the head. […] One end of the ileal strip was impaled onto a platinum wire electrode; and the other end was tied to a stationary glass rod. Basal tension was set at 0.1-0.3 g and peak developed tension in response to field stimulation (100-150 V, 10 msec pulse duration, 0.2 Hz) was measured with a tension transducer.

A further data set concerns cardiac cells. To be noted: cited from earlier work.
The next data set deals with patients. To be noted: cited from earlier work.
[3] abbreviates: Harris dog, IV infusion, ED is the effective dose required to sustain normal sinus rhythm.
The mark [4] stands for this setting: Ouabain dog, IV infusion, ED is the effective dose required to sustain normal sinus rhythm.
Where [5] appears, read: 4 mg/L, inhibition of field-stimulated contractile tension.
[6] abbreviates: administered to patients for the management of arrhythmias.

In the case of `Cc1ccc(C(=O)Nc2cc(CN3CCCC3)c(O)c(CN3CCCC3)c2)cc1` [V, N--(4-methylbenzoyl)-3,5,-bis(N--pyrrolidinylmethyl)-4-hydroxyaniline], the minimal effective dose in data set [1] (setting [3]) was 15 mg/kg; in data set [2] (setting [4]), 3 mg/kg. In addition, the inhibition at 4 µg/mL in the data set on Guinea Pig Ileum (setting [5]) stood at 22%.
With `O=C(Nc1cc(CN2CCCC2)c(O)c(CN2CCCC2)c1)c1ccc(C(F)(F)F)cc1` [XIII, N--(4-trifluoromethylbenzoyl)-3,5,-bis(N--pyrrolidinylmethyl)-4-hydroxyaniline], the figures for the minimal effective dose in data set [1] (setting [3]) and in data set [2] (setting [4]) were 9 mg/kg and 5.25 mg/kg, respectively. Also, in the data set with Guinea Pig Ileum (setting [5]), the inhibition at 4 µg/mL came out at 43%.
As for `Oc1c(CN2CCCC2)cc(Nc2ncnc3ccccc23)cc1CN1CCCC1` [Changrolin, 4-[3',5'-bis[N-pyrrolidinylmethyl]-4'-hydroxyanilino]quinazoline, reference compound], the minimal effective dose in data set [1] (setting [3]) came to 10.3 mg/kg; in data set [2] (setting [4]) it was 5.5 mg/kg. Further, the inhibition at 4 µg/mL in the data set with Guinea Pig Ileum (setting [5]) stood at 43%. The “anticholinergic activity (in words, background)” value (from here on “anticholinergic activity”) in the data set on cardiac cells is listed as “substantial anticholinergic activity”. Besides, in the data set on patients (setting [6]), the “adverse side-effects in patients” value was “skin discoloration in some patients”. The “antiarrhythmic effectiveness (in words, background)” value in the data set with patients (human, in vivo) is recorded as “effective antiarrhythmic agent”.
Take `Nc1cc(CN2CCCC2)c(O)c(CN2CCCC2)c1` [Example XXX, 3,5-bis(N-pyrrolidinylmethyl)-4-hydroxyaniline]: in data set [1] (setting [3]), the “Antiarrhythmic ED in Harris Dog” value was “inactive”. The inhibition at 4 µg/mL in the data set on Guinea Pig Ileum (setting [5]) came out at 3%.
In the case of `O=C(c1ccccc1)c1cc(CN2CCCC2)c(O)c(CN2CCCC2)c1` [Example II, 4-hydroxy-3,5-bis(pyrrolidinylmethyl)benzophenone], the minimal effective dose in data set [1] (setting [3]) turned out to be 11 mg/kg; in data set [2] (setting [4]), 1.9 mg/kg. For the same molecule, in the data set with Guinea Pig Ileum (setting [5]), the inhibition at 4 µg/mL was found to be 9%.
The like results for `O=C(Nc1cc(CN2CCCC2)c(O)c(CN2CCCC2)c1)c1ccc(Cl)cc1` [IV, N--(4-chlorobenzoyl)-3,5,-bis(N--pyrrolidinylmethyl)-4-hydroxyaniline] were, in that order, 7 mg/kg, 1.5 mg/kg and 49%.
For the molecule `O=C(Nc1cc(CN2CCCC2)c(O)c(CN2CCCC2)c1)c1ccccc1` [Example III, N-benzoyl-3,5-bis(N-pyrrolidinylmethyl)-4-hydroxyaniline], the values for the minimal effective dose in data set [1] (setting [3]) and in data set [2] (setting [4]) were 5 mg/kg and 3.4 mg/kg, respectively. In addition, the inhibition at 4 µg/mL in the data set on Guinea Pig Ileum (setting [5]) was 35%.
On to “2,6-bis(pyrrolidinylmethyl)-4-benzyl-phenol [XXXVI]”, for which the “Antiarrhythmic ED in Harris Dog” value in data set [1] (setting [3]) is listed as “low activity”. In addition, in the data set on Guinea Pig Ileum (setting [5]), the “Anticholinergic Inhibition of Guinea Pig Ileum (% inhibition at 4 mg/L)” value amounted to 14%.
In the case of `CC(C)N(CCC(C(N)=O)(c1ccccc1)c1ccccn1)C(C)C` (stereo not drawn) [Disopyramide, α[2-(diisopropylamino)-ethyl]α-phenol-2-pyridineacetamide, reference compound], the minimal effective dose was 6.8 mg/kg in data set [1] (iv) and 4.4 mg/kg in data set [2] (iv). Also, the inhibition at 4 µg/mL in the data set with Guinea Pig Ileum was 81%. In addition, in the data set on cardiac cells, the “anticholinergic activity” value is “indirect anticholinergic actions”. Also, the “effect on impulse formation, conduction velocity and refractory period of cardiac cells” value in the data set with cardiac cells was “depress impulse formation, slow conduction velocity, and increase the duration of the refractory period of cardiac cells”. Moreover, in the data set on patients (setting [6]), the “adverse side-effects in patients” value is “dryness of the mouth, blurred vision, constipation, and urinary retention, and depression of myocardial contractility”.
In the case of `Oc1c(CN2CCCC2)cc(OCc2ccccc2)cc1CN1CCCC1` [Example I, 4-benzyloxy-2,6-bis(pyrrolidinylmethyl)phenol], the minimal effective dose in data set [1] (setting [3]) worked out at 4.5 mg/kg; in data set [2] (setting [4]) it was 1.5 mg/kg. In the data set with Guinea Pig Ileum (setting [5]), the inhibition at 4 µg/mL worked out at 62%.
Regarding `CC(=O)Nc1cc(CN2CCCC2)c(O)c(CN2CCCC2)c1` [Example XXIX, 3,5-bis(N-pyrrolidinylmethyl)-4-hydroxyacetanilide], the “Antiarrhythmic ED in Harris Dog” value in data set [1] (setting [3]) is “inactive”.
For `C=C[C@H]1C[N@@]2CC[C@H]1C[C@@H]2[C@@H](O)c1ccnc2ccc(OC)cc12` (stereo in doubt) [Quinidine, 6-methoxy-α-(5'-vinyl-2-quinuclidinyl)-4-quindinemethanol], in data set [1] (setting [3]), the minimal effective dose was 10.1 mg/kg. Besides, the inhibition at 4 µg/mL with Guinea Pig Ileum (setting [5]) was 62%. Moreover, in the data set with cardiac cells, the “anticholinergic activity” value is “indirect anticholinergic actions”; the “effect on impulse formation, conduction velocity and refractory period of cardiac cells” value was “depress impulse formation, slow conduction velocity, and increase the duration of the refractory period of cardiac cells”. In the data set with patients (human, in vivo), the “adverse side-effects in patients” value was “cardiotoxicity, diarrhea, nausea, vomiting, fever, hypertension and depression of myocardial contractility”.
